Experimental data from patent US20140255392A1 (BAYER INTELLECTUAL PROPERTY GMBH, priority 2011, published 2014).

Target: T1, human kinase Mps-1 (Homo sapiens, UniProt P33981)
T1 construct: N-terminally GST-tagged human full length recombinant Mps-1 kinase; GST (N); purchased Invitrogen, Karslruhe, Germany PV4071
T1 sequence (P33981 1-857): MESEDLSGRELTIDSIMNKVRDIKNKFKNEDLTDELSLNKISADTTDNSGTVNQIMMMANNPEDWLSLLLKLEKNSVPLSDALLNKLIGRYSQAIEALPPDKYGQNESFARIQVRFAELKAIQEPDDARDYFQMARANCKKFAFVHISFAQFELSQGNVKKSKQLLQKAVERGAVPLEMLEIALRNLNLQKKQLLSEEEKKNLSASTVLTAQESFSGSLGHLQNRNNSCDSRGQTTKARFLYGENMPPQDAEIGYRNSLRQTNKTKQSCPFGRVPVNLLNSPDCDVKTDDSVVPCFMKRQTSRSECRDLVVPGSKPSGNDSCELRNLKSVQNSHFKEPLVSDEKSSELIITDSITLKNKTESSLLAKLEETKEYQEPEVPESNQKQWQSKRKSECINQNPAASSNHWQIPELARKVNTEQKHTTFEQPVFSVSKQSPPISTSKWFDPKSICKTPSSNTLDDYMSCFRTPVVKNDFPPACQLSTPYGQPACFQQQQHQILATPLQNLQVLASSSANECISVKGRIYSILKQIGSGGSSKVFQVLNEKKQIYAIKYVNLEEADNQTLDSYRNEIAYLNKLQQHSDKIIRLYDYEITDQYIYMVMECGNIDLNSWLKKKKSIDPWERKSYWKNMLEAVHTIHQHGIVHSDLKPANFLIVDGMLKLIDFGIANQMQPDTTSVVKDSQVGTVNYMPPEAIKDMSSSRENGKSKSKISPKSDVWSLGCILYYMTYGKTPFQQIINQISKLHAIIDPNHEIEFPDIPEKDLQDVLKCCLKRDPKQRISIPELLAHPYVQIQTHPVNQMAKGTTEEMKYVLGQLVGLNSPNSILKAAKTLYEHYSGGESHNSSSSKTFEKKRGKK
Assay: Mps-1 kinase assay (TR-FRET)
Format: biochemical
Details: N-terminally GST-tagged human full length recombinant Mps-1; 10 μM ATP; 1 μM peptide substrate; 60 min at 22° C.
Summary of the method: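 Read-out: TR-FRET from Europium-labelled anti-phospho(Ser/Thr) antibody to SA-XLent after 1 h detection incubation at 22° C. Inhibition of kinase activity measured.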

SMILES | IC50 [nM]
CCNC(=O)c1ccc(-c2cnc3c(NCCC(F)(F)F)cc(Oc4cccc(F)c4F)cn23)cc1C [Example 73, 4-{6-(2,3-Difluorophenoxy)-8-[(3,3,3-trifluoropropyl)amino]imidazo[1,2-a]pyridin-3-yl}-N-ethyl-2-methylbenzamide] | 1.2
Cc1cc(-c2cnc3c(NCCC(F)(F)F)cc(Oc4cccc(OC(F)(F)F)c4)cn23)ccc1C(=O)NC1CC1 [Example 74, N-cyclopropyl-2-methyl-4-{6-[3-(trifluoromethoxy)phenoxy]-8-[(3,3,3-trifluoropropyl)amino]imidazo[1,2-a]pyridin-3-yl}benzamide] | 6.8
Cc1cc(-c2cnc3c(NCCC(F)(F)F)cc(Oc4cccc(OC(F)(F)F)c4)cn23)ccc1C(=O)NC1(C#N)CC1 [Example 75, N-(1-cyanocyclopropyl)-2-methyl-4-{6-[3-(trifluoromethoxy)phenoxy]-8-[(3,3,3-trifluoropropyl)amino]imidazo[1,2-a]pyridin-3-yl}benzamide] | 157
Cc1cc(-c2cnc3c(NCCC(F)(F)F)cc(Oc4cccc(OC(F)(F)F)c4)cn23)ccc1C(=O)NC1(C)CC1 [Example 76, 2-Methyl-N-(1-methylcyclopropyl)-4-{6-[3-(trifluoromethoxy)phenoxy]-8-[(3,3,3-trifluoropropyl)amino]imidazo[1,2-a]pyridin-3-yl}benzamide] | 105
CCNC(=O)c1ccc(-c2cnc3c(NCCC(F)(F)F)cc(Oc4cccc(OC(F)(F)F)c4)cn23)cc1C [Example 77, N-ethyl-2-methyl-4-{6-[3-(trifluoromethoxy)phenoxy]-8-[(3,3,3-trifluoropropyl)amino]imidazo[1,2-a]pyridin-3-yl}benzamide] | 51
CNC(=O)c1ccc(-c2cnc3c(NCCC(F)(F)F)cc(Oc4cccc(OC(F)(F)F)c4)cn23)cc1C [Example 78, N,2-dimethyl-4-{6-[3-(trifluoromethoxy)phenoxy]-8-[(3,3,3-trifluoropropyl)amino]imidazo[1,2-a]pyridin-3-yl}benzamide] | 30.3
COc1ccccc1-c1cc(NCCC(F)(F)F)c2ncc(-c3ccc(C(=O)NC4(C)CC4)c(C)c3)n2c1 [Example 80] | 35.6
CNC(=O)c1ccc(-c2cnc3c(NCCC(F)(F)F)cc(-c4ccccc4OC)cn23)cc1C [Example 81, 4-{6-(2-Methoxyphenyl)-8-[(3,3,3-trifluoropropyl)amino]imidazo[1,2-a]pyridin-3-yl}-N,2-dimethylbenzamide] | 19.8
CCNC(=O)c1ccc(-c2cnc3c(NCCC(F)(F)F)cc(-c4ccccc4OC)cn23)cc1C [Example 82, N-ethyl-4-{6-(2-methoxyphenyl)-8-[(3,3,3-trifluoropropyl)amino]imidazo[1,2-a]pyridin-3-yl}-2-methylbenzamide] | 21.3
Cc1cc(-c2cnc3c(NCCC(F)(F)F)cc(Oc4ccc(OC(F)(F)F)c(F)c4)cn23)ccc1C(=O)NC1CC1 [Example 83, N-cyclopropyl-4-{6-[3-fluoro-4-(trifluoromethoxy)phenoxy]-8-[(3,3,3-trifluoropropyl)amino]imidazo[1,2-a]pyridin-3-yl}-2-methylbenzamide] | 68.7
Cc1cc(-c2cnc3c(NCCC(F)(F)F)cc(Oc4ccc(OC(F)(F)F)c(F)c4)cn23)ccc1C(=O)NC1(C#N)CC1 [Example 84, N-(1-cyanocyclopropyl)-4-{6-[3-fluoro-4-(trifluoromethoxy)phencow]-8-[(3,3,3-trifluoropropyl)amino]imidazo[1,2-a]pyridin-3-yl}-2-methylbenzamide] | 243
Cc1cc(-c2cnc3c(NCCC(F)(F)F)cc(Oc4ccc(OC(F)(F)F)c(F)c4)cn23)ccc1C(=O)NC1(C)CC1 [Example 85, 4-{6-[3-F luoro-4-(trifluoromethoxy)phenoxy]-8-[(3,3,3-trifluoropropyl)amino]imidazo[1,2-a]pyridin-3-yl}-2-methyl-N-(1-methylcyclopropyl)benzamide] | 199
CNC(=O)c1ccc(-c2cnc3c(NCCC(F)(F)F)cc(Oc4ccc(OC(F)(F)F)c(F)c4)cn23)cc1C [Example 86, 4-{6-[3-Fluoro-4-(trifluoromethoxy)phenoxy]-8-[(3,3,3-trifluoropropyl)amino]imidazo[1,2-a]pyridin-3-yl}-N,2-dimethylbenzamide] | 56.7
CCNC(=O)c1ccc(-c2cnc3c(NCCC(F)(F)F)cc(Oc4ccc(OC(F)(F)F)c(F)c4)cn23)cc1C [Example 87, N-ethyl-4-{6-[3-fluoro-4-(trifluoromethoxy)phenoxy]-8-[(3,3,3-trifluoropropyl)amino]imidazo[1,2-a]pyridin-3-yl}-2-methylbenzamide] | 70.3
CNC(=O)c1ccc(-c2cnc3c(NCCC(F)(F)F)cc(-c4ccncc4)cn23)cc1C [Example 88, N,2-dimethyl-4-{6-(pyridin-4-yl)-8-[(3,3,3-trifluoropropyl)amino]imidazo[1,2-a]pyridin-3-yl}benzamide] | 9.8
CCNC(=O)c1ccc(-c2cnc3c(NCCC(F)(F)F)cc(-c4ccncc4)cn23)cc1C [Example 89, N-ethyl-2-methyl-4-{6-(pyridin-4-yl)-8-[(3,3,3-trifluoropropyl)amino]imidazo[1,2-a]pyridin-3-yl}benzamide] | 6.9
Cc1cc(-c2cnc3c(NCCC(F)(F)F)cc(-c4ccncc4)cn23)ccc1C(=O)NC1(C)CC1 [Example 90] | 15.9
Cc1cc(-c2cnc3c(NCCC(F)(F)F)cc(-c4ccncc4)cn23)ccc1C(=O)NC1(C#N)CC1 [Example 91, N-(1-cyanocyclopropyl)-2-methyl-4-{6-(pyridin-4-yl)-8-[(3,3,3-trifluoropropyl)amino]imidazo[1,2-a]pyridin-3-yl}benzamide] | 20.6
C=Cc1cc(NCCC(F)(F)F)c2ncc(-c3ccc(C(=O)NC4CC4)c(C)c3)n2c1 [Example 92, N-cyclopropyl-2-methyl-4-{8-[(3,3,3-trifluoropropyl)amino]-6-vinylimidazo[1,2-a]pyridin-3-yl}benzamide] | 13.2
C=Cc1cc(NCCC(F)(F)F)c2ncc(-c3ccc(C(=O)NC)c(C)c3)n2c1 [Example 93, N,2-dimethyl-4-{8-[(3,3,3-trifluoropropyl)amino]-6-vinylimidazo[1,2-a]pyridin-3-yl}benzamide] | 68.6
C=Cc1cc(NCCC(F)(F)F)c2ncc(-c3ccc(C(=O)NCC)c(C)c3)n2c1 [Example 94, N-ethyl-2-methyl-4-{8-[(3,3,3-trifluoropropyl)amino]-6-vinylimidazo[1,2-a]pyridin-3-yl}benzamide] | 84.3
C=Cc1cc(NCCC(F)(F)F)c2ncc(-c3ccc(C(=O)NC4(C)CC4)c(C)c3)n2c1 [Example 95, 2-Methyl-N-(1-methylcyclopropyl)-4-{8-[(3,3,3-trifluoropropyl)amino]-6-vinylimidazo[1,2-a]pyridin-3-yl}benzamide] | 140
C=Cc1cc(NCCC(F)(F)F)c2ncc(-c3ccc(C(=O)NC4(C#N)CC4)c(C)c3)n2c1 [Example 96, N-(1-cyanocyclopropyl)-2-methyl-4-{8-[(3,3,3-trifluoropropyl)amino]-6-vinylimidazo[1,2-a]pyridin-3-yl}benzamide] | 123
CCc1cc(NCCC(F)(F)F)c2ncc(-c3ccc(C(=O)NC4CC4)c(C)c3)n2c1 [Example 99] | 13.3
CCc1cc(NCCC(F)(F)F)c2ncc(-c3ccc(C(=O)NC)c(C)c3)n2c1 [Example 100, 4-{6-Ethyl-8-[(3,3,3-trifluoropropyl)amino]imidazo[1,2-a]pyridin-3-yl}-N,2-dimethylbenzamide] | 106
CCNC(=O)c1ccc(-c2cnc3c(NCCC(F)(F)F)cc(CC)cn23)cc1C [Example 101, N-ethyl-4-{6-ethyl-8-[(3,3,3-trifluoropropyl)amino]imidazo[1,2-a]pyridin-3-yl}-2-methylbenzamide] | 123
CCc1cc(NCCC(F)(F)F)c2ncc(-c3ccc(C(=O)NC4(C)CC4)c(C)c3)n2c1 [Example 102, 4-{6-Ethyl-8-[(3,3,3-trifluoropropyl)amino]imidazo[1,2-a]pyridin-3-yl}-2-methyl-N-(1-methylcyclopropyl)benzamide] | 131
CCc1cc(NCCC(F)(F)F)c2ncc(-c3ccc(C(=O)NC4(C#N)CC4)c(C)c3)n2c1 [Example 103] | 156
CNC(=O)c1ccc(-c2cnc3c(NCCC(F)(F)F)cc(Oc4ccc(OC)c(F)c4)cn23)cc1C [Example 106, 4-{6-(3-Fluoro-4-methoxyphenoxy)-8-[(3,3,3-trifluoropropyl)amino]imidazo[1,2-a]pyridin-3-yl}-N,2-dimethylbenzamide] | 1.6
